Where two headings read alike, the source gives them in different places. Numbered stars: 1 amine (or outer) side, 2 acyl side, 3 side chain; on linkers, the order of the positions; unused ones are H or OH. Bridge positions count the residues as written; N and C are the ends. Square brackets hold non-standard residues; d marks the D form. Peptide text beside a SMILES is read from it. * marks the point of attachment. DOTA = O=C(O)CN1CCN(CC(=O)O)CCN(CC(=O)*)CCN(CC(=O)O)CC1; Oic = O=C(O)[C@@H]1C[C@@H]2CCCC[C@@H]2N1; Phe(4-Cl) = N[C@@H](Cc1ccc(Cl)cc1)C(=O)O; Ethylenediamine = C(CN[*:2])N[*:1]; X1 = O=C(CC1CCN([*:1])CC1)[*:2]; d(αMeS) = C[C@@](N)(CO)C(=O)O; Tle = CC(C)(C)[C@H](N)C(=O)O; 4Amb = NCc1ccc(C(=O)O)cc1; Aib = CC(C)(N)C(=O)O
Experiments:
[1] = target: T1, Fc-fusion protein of human PSMA (hPSMA-Fc) (Homo sapiens, UniProt Q04609); assay: Surface plasmon resonance assay (Biacore T200, single cycle kinetic); format: binding; conditions: hPSMA-Fc, 25° C., read-out: pKD CAT (converted)
T1 construct: purchased Acro Biosystems PSA-H5264
T1 sequence (Q04609 44-750 limits assumed): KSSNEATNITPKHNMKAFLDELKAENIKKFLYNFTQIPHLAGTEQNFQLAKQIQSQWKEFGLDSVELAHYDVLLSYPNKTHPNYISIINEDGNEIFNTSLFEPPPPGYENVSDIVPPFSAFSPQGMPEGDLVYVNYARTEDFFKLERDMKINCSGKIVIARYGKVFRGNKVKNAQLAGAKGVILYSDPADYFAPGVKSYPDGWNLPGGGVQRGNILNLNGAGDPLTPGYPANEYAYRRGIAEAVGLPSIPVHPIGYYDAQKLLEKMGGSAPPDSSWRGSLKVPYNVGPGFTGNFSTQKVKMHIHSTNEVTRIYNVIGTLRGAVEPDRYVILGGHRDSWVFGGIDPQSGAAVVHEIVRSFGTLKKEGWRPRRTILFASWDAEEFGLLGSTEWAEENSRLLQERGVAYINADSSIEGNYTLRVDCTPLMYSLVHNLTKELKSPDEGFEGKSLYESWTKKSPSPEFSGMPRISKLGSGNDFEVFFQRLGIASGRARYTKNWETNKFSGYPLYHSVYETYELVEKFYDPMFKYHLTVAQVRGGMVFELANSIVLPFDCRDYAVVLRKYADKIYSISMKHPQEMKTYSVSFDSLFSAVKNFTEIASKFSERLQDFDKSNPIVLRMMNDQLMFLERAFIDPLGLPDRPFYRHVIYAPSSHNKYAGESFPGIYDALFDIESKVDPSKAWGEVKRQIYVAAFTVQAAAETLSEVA
Summary of the method: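 KD, expressed as pKD, came from 1:1 Langmuir fits of reference- and buffer-blank-subtracted SPR data. The runs were single-cycle kinetics at 25° C in HBST/0.1% DMSO over human PSMA-Fc, captured to ~1000 RU on a peptide-coated CM5 surface and regenerated with 10 mM glycine pH 1.5.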

[2] = target: T2, PSMA-expressing C4-2 cells (Homo sapiens, UniProt Q04609); assay: FACS binding assay (competition with 50 nM PSM-0183); conditions: C4-2 cells, read-out: pIC50 [C4-2] CAT (converted)
T2 construct: PSMA-expressing C4-2 cells (ATCC, Cat. No. CRL-3314) were cultured in RPMI-1640; host or cells: C4-2 cells
T2 sequence (Q04609 whole entry): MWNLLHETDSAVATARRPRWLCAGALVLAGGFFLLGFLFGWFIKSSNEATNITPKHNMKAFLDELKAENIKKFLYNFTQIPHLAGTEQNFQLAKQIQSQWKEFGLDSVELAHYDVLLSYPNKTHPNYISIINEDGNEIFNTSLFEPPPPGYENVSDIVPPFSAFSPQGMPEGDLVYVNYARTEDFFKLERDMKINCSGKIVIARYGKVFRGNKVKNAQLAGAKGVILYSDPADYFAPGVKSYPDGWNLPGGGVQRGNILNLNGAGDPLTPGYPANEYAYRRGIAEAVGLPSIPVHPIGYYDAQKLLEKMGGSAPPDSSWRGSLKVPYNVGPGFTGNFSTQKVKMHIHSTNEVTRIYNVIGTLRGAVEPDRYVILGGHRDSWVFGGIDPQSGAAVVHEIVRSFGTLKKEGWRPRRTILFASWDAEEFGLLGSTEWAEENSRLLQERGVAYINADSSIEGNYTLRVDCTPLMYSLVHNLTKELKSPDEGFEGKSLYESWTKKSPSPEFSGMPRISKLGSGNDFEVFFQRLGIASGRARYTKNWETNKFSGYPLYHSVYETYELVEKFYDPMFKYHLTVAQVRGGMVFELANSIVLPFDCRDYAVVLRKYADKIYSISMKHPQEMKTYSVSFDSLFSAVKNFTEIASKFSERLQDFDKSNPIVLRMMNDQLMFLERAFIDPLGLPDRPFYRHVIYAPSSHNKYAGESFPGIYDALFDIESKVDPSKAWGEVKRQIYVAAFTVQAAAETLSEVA
Summary of the method: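 Competition format: fluorescent tracer PSM-0183 (50 nM) displaced from PSMA on C4-2 cells by a test compound titration over 1 h at 4 °C. Bound tracer was quantified as flow-cytometric AF488 median fluorescence after washing. Four-parameter logistic fits of MFI data gave IC50 and pIC50.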

[3] = pKD category for PSMA SPR activity assay
[4] = SPR, single cycle kinetic, category
[5] = FACS binding, competition with 50 nM PSM-0183, category

Structure (SMILES) | Kd [1, 3] [nM] | IC50 ([2]; pIC50 category of FACS binding) [nM] | Kd [1, 4] [nM] | IC50 [2, 5] [nM]
CC(=O)N[C@H](C(=O)NC(C)(C)C(=O)N[C@@H](Cc1ccccc1)C(=O)N[C@H]1CSSC[C@@H](C(=O)N[C@H](C(=O)N[C@H](C(=O)NCc2ccc(C(=O)N[C@H](CCCCNC(=O)CN3CCN(CC(=O)O)CCN(CC(=O)O)CCN(CC(=O)O)CC3)C(N)=O)cc2)[C@@H](C)O)C(C)(C)C)NC(=O)[C@H](CC(N)=O)NC(=O)C(C)(C)NC(=O)[C@H](CCCNC(=N)N)NC(=O)[C@H](CCCCN)NC1=O)[C@@H](C)O [PSM-0522, Ac-Thr-Aib-Phe-[Cys-Lys-Arg-Aib-Asn-Cys]-Tle-Thr-Pamb-lys(DOTA)-NH2] (Ac-T[Aib]FCKR[Aib]NC[Tle]T[4Amb][dK](DOTA)-NH2; disulfide 4-9) | < 12.6 | < 200 | – | –
CC(=O)NC(C)(C)C(=O)N[C@@H](Cc1ccc(Cl)cc1)C(=O)N[C@H]1CSSC[C@@H](C(=O)N[C@H](C(=O)N[C@H](C(=O)N[C@H](CCCCNC(=O)CN2CCN(CC(=O)O)CCN(CC(=O)O)CCN(CC(=O)O)CC2)C(N)=O)[C@@H](C)O)C(C)(C)C)NC(=O)[C@H](CC(N)=O)NC(=O)C(C)(C)NC(=O)[C@H](CCCNC(=N)N)NC(=O)[C@H](CCCCN)NC1=O [PSM-0404, Ac-Aib-Pcf-[Cys-Lys-Arg-Aib-Asn-Cys]-Tle-Thr-lys(DOTA)-NH2] (Ac-[Aib][Phe(4-Cl)]CKR[Aib]NC[Tle]T[dK](DOTA)-NH2; disulfide 3-8) | < 12.6 | < 200 | – | –
C[C@@H](O)[C@H](NC(=O)[C@@H](NC(=O)[C@@H]1CSSC[C@H](NC(=O)[C@H](Cc2ccc(Cl)cc2)NC(=O)[C@@](C)(CO)NC(=O)[C@@H](NC(=O)CC2CCN(C(=O)CN3CCN(CC(=O)O)CCN(CC(=O)O)CCN(CC(=O)O)CC3)CC2)[C@@H](C)O)C(=O)N[C@@H](CCCCN)C(=O)N[C@@H](CCCNC(=N)N)C(=O)NC(C)(C)C(=O)N[C@@H](CC(N)=O)C(=O)N1)C(C)(C)C)C(N)=O [PSM-0256, DOTA-Cmp-Thr-ams-Pcf-[Cys-Lys-Arg-Aib-Asn-Cys]-Tle-Thr-NH2] ({DOTA}-[X1]T[d(αMeS)][Phe(4-Cl)]CKR[Aib]NC[Tle]T-NH2; disulfide 5-10) | – | – | < 12.6 | < 200
C[C@@H](O)[C@H](NC(=O)CN1CCN(CC(=O)O)CCN(CC(=O)O)CCN(CC(=O)O)CC1)C(=O)NC(C)(C)C(=O)N[C@@H](Cc1ccc(Cl)cc1)C(=O)N[C@H]1CSSC[C@@H](C(=O)N[C@H](C(=O)NCCN)C(C)(C)C)NC(=O)[C@H](CC(N)=O)NC(=O)C(C)(C)NC(=O)[C@H](CCCNC(=N)N)NC(=O)[C@H](CCCCN)NC1=O [PSM-0222, DOTA-Thr-Aib-Pcf-[Cys-Lys-Arg-Aib-Asn-Cys]-Tle-en] ({DOTA}-T[Aib][Phe(4-Cl)]CKR[Aib]NC[Tle]-Ethylenediamine; disulfide 4-9) | – | – | < 12.6 | < 200
CC(=O)N[C@H](C(=O)NC(C)(C)C(=O)N[C@@H](Cc1ccccc1)C(=O)N[C@H]1CSSC[C@@H](C(=O)N[C@H](C(=O)N[C@H](C(=O)N[C@@H](CC(=O)O)C(N)=O)[C@@H](C)O)C(C)(C)C)NC(=O)[C@H](CC(N)=O)NC(=O)[C@@H]2C[C@@H]3CCCC[C@@H]3N2C(=O)[C@H](CCCNC(=N)N)NC(=O)[C@H](CCCCN)NC1=O)[C@@H](C)O [PSM-0403, Ac-Thr-Aib-Phe-[Cys-Lys-Arg-Oic-Asn-Cys]-Tle-Thr-Asp-NH2] (Ac-T[Aib]FCKR[Oic]NC[Tle]TD-NH2; disulfide 4-9) | < 12.6 | < 200 | – | –

More lines, now with the values ahead:

Kd [1, 3] [nM] | IC50 ([2]; pIC50 category of FACS binding) [nM] | Kd [1, 4] [nM] | IC50 [2, 5] [nM] | Structure (SMILES)
< 12.6 | < 200 | – | – | C=C1N[C@@H](CCCCN)C(=O)N[C@@H](CCCNC(=N)N)C(=O)NC(C)(C)C(=O)N[C@@H](CC(N)=O)C(=O)N[C@H](C(=O)N[C@H](C(=O)N[C@H](C(=O)NCCOCCOCC(=O)N[C@H](CCCCNC(=O)CN2CCN(CC(=O)O)CCN(CC(=O)O)CCN(CC(=O)O)CC2)C(N)=O)[C@@H](C)O)C(C)(C)C)CSSC[C@@H]1NC(=O)[C@H](Cc1ccccc1)NC(=O)C(C)(C)NC(=O)[C@@H](NC(C)=O)[C@@H](C)O [PSM-0529, Ac-Thr-Aib-Phe-[Cys-Lys-Arg-Aib-Asn-Cys]-Tle-Thr-O2Oc-lys(DOTA)-NH2]
> 501 | > 3160 | – | – | CCCC[C@H](NC(=O)[C@@H]1CSSC[C@H](NC(=O)[C@H](Cc2ccccc2)NC(=O)[C@H](C)NC(=O)[C@H](NC(C)=O)[C@H](C)O)C(=O)N[C@@H](CCCCN)C(=O)N[C@@H](CCCNC(=N)N)C(=O)N[C@@H](C)C(=O)N[C@@H](CC(N)=O)C(=O)N1)C(=O)N[C@H](C(=O)N[C@@H](CC(=O)O)C(N)=O)[C@@H](C)O [PSM-0525, Ac-thr-Als-Phe-[Cys-Lys-Arg-Als-Asn-Cys]-Nle-Thr-Asp-NH2]

Source: patent publication US20260083865A1, “PROSTATE SPECIFIC MEMBRANE ANTIGEN (PSMA) LIGANDS AND USE THEREOF” (priority 2022, published 2026)
